According to BindingDB's records for doi:10.1016/j.bmcl.2017.04.030 (Takeda Pharmaceutical, 2017):
Numbered stars: 1 amine (or outer) side, 2 acyl side, 3 side chain; on linkers, the order of the positions; unused ones are H or OH. Bridge positions count the residues as written; N and C are the ends. Square brackets hold non-standard residues; d marks the D form. Peptide text beside a SMILES is read from it. tBuAla = CC(C)(C)C[C@H](N)C(=O)O; X1 = O=C(CCC[*:2])[*:1]

Biological target: T1, Oxytocin receptor (Homo sapiens, UniProt P30559)
T1 sequence (P30559 whole entry): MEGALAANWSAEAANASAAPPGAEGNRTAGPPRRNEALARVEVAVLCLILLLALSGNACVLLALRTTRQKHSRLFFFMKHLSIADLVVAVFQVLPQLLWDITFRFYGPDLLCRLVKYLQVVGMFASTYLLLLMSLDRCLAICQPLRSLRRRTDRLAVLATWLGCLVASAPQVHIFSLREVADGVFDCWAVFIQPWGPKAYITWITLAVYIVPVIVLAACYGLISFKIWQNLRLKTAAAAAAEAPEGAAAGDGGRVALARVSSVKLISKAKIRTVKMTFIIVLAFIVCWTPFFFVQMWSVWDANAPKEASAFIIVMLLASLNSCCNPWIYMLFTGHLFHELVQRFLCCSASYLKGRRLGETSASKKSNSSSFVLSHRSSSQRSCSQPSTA
Experiment: Agonist activity at human OTR expressed in CHO cells assessed as calcium mobilization measured after 30 mins by Fluo-4-AM dye based FLIPR assay

Row | EC50 | SMILES
1 | 8 pM | CC[C@H](C)[C@@H]1NC(=O)[C@H](Cc2ccc(O)cc2)NC(=O)CCSSC[C@@H](C(=O)N2CCC[C@H]2C(=O)N[C@@H](CC(C)C)C(=O)NNC(N)=O)NC(=O)[C@H](CC(N)=O)NC(=O)[C@H](CCC(N)=O)NC1=O
2 | 7 pM | CC[C@H](C)[C@@H]1NC(=O)[C@H](Cc2ccc(O)cc2)NC(=O)CCCSC[C@@H](C(=O)N2CCC[C@H]2C(=O)N[C@@H](CC(C)(C)C)C(=O)NCC(N)=O)NC(=O)[C@H](CC(N)=O)NC(=O)[C@H](CCC(N)=O)NC1=O (YIQNCP[tBuAla]G-NH2; linker N-5 via X1)
